The numbers were not newly measured in US20110200560A1, “NON-IONIC SELF-ASSEMBLING PEPTIDES AND USES THEREOF” (MASSACHUSETTS INSTITUTE OF TECHNOLOGY, priority 2009, published 2011), which cites them from elsewhere.

Where two headings read alike, the source gives them in different places.

Data set [1] has as its system human umbilical vein endothelial cell (HUVEC). Conditions: from RADA 16-I scaffold, without additional soluble growth factors.
In data set [2] the test system is human umbilical vein endothelial cells (HIVEC).

Take AASIKVAVSADR (Mammalian): the “activity of neurite extension by PC12 cells” value in the data set on PC12 cells is “promoted activity of neurite extension”.

Take “RAD/PRG: RADA16 peptide scaffold containing active motif with 2 units RGD motif (PRGDSGYRGDS) (SEQ ID NO: 77) (Mammalian)”: the “HUVEC unidirectional migration in response to functional peptide scaffolds” value was “directionally migrated” in data set [1] and “induced cell migration” in data set [1] (listed as PRG).

Consider “RAD/KLT: RADA16 peptide scaffold containing motif from vascular endothelial growth factor (KLTWQELYQLKYKGI) (SEQ ID NO: 78) (Mammalian)”, for which the “HUVEC unidirectional migration in response to functional peptide scaffolds” value is on record as “directionally migrated” in data set [1] and “induced cell migration” in data set [1] (listed as KLT).

Consider RYVVLPR (Mammalian), for which the cell adhesion result in the data set with cell adhesion is listed as “promoted cell adhesion”.

Regarding YIGSR (Mammalian), in the data set with cell adhesion, the cell adhesion result was “promoted cell adhesion”.

For “CSRARKQAASIKVAVSADR (Mammalian) [Laminin-1 peptide]”, the “degradation of Matrigel matrix by human umbilical vein endothelial cells” value in data set [2] was “induced degradation of Matrigel matrix”.

Turning to KAFDITYVRLKF (Mammalian), in the data set on neuronal cell, the neurite outgrowth entry is “promoted” and the neuronal cell adhesion result is listed as “promoted”. Further, in the data set on HUVEC, the HUVEC adhesion entry is recorded as “promoted” and the HUVEC tube formation entry was “promoted”.

In the case of PDSGR (Mammalian), the cell adhesion entry in the data set on cell adhesion was “promoted cell adhesion”.
